“And” between values parts separate entries of the source, which are not always exact repeats. Identical values can stand only once.
Experiments:
[1] = system: Larkspur bx glucosyl transferase (SEQ ID NO 10); test: UDP-Glo glucosyl transferase assay, purified enzyme; type: biochemical; conditions: 1 mM herbicide V
Protocol: (§1) Glucosyl transferase activity is assayed via measurement of acceptor substrate-dependent production of UDP from ultrapure UDP-glucose using the Promega UDP-Glo™ method and according to the manufacturer's instructions. Assays are run in 96 well microtiter plates.
(§2) Enzyme, typically at a stock concentration of ˜2 mg/ml is diluted to an appropriate concentration in 50 mM K^+ Hepes buffer at pH7.5 containing 0.5 mg/mL bovine serum albumin (BSA) and 5 ul aliquots of this diluted enzyme added to each well of a Perkin Elmer white ½ area 96 well plate. […] Assays are run for an appropriate time (usually 10 to 60 min) so that the amount of UDP formed lies within the most nearly linear part of the UDP standard curve and are stopped with the addition and mixing of 25 ul UDP-Glo™ detection reagent (prepared as described below). Plates are then incubated at room temperature for 60 minutes and then read in a luminescence plate reader (Perkin Elmer Envision 2130 Multilabel Reader). A UDP standard curve is run alongside each set of assays and reagent blank control assays run with DMSO in place of test herbicide. Typically, 300 pmol of UDP corresponds to a Relative Luminescence Unit (RLU) reading of about 1.5E7 and the response curve between 0 and 600 pmol is fitted to a polynomial function (see for example FIG. 2).
(§3) The UDP-Glo™ reagents are made up and used according to the manufacturer's instructions. Thus, Nucleotide Detection Buffer and ATP are combined to make nucleotide detection reagent (NDR) dispensed into aliquots and frozen to be freshly thawed before use.
(§4) Km and kcat values in respect of UDP-glucose are derived by carrying out experiments to measure initial rates over a suitable range of concentrations of UDP glucose out at a fixed near saturating concentration of acceptor substrate. Best fit values of kcat, Km and kcat/Km are obtained by direct fitting of the data to the Michaelis-Menten equation using Graphpad Prism™ software.
(§5) DNA sequences, optimized for E. coli codon usage, corresponding to SEQ IDs 1-15, encoding BX8 and BX9 orthologue polypeptides derived from a range of species (as depicted in FIG. 1) were synthesized by Genewiz (South Plainfield, USA) with 5′ NdeI and 3′ XhoI restriction sites. The various orthologues were synthesized with either a N-terminal 6×His purification tag or C-terminal 6×His purification tag (i.e. tried both ways to achieve best expression of activity) and cloned into the E. coli expression plasmid pET24a (Novagen) via the NdeI and XhoI restriction sites. Expression, purification and assay was as described in Example 1.
(§6) Assays were carried out as described in Example 1. Partly purified C-terminally his tagged w/t Larkspur enzyme (SEQ ID No 10 with a 6 amino acid C-terminal tag) catalyzed glucosyl transfer to herbicide V at a rate estimated to be about 0.0065/s/pmol at 1 mM herbicide V. The similarly-tagged w/t bx-like enzymes from rye (SEQ ID No 11) and from wheat (SEQ ID No 4) were also active but only at levels close to the detection limit at ˜0.0015/s/pmol. Further examples of assay results from further experiments are depicted in Table 14. All of the proteins were C-terminally his tagged versions of the sequences referenced except for the Zea mays bx8 SEQ ID NO: 2 which was N-terminally his tagged.

[2] = system: rye bx-like glucosyl transferase (SEQ ID No 11); test: as above; type: biochemical; conditions: herbicide V; close to the detection limit
Protocol: as §1, §2, §3, §4, §5, §6

[3] = target: T1, SEQ ID 31, mutant bx-type glucosyl transferase (Zea mays, UniProt Q8W2B7, S121V); test: LC/MS glucosyl transferase assay (glucoside peak area), purified enzyme; type: biochemical; conditions: about 60 min, ~15 pmol enzyme, relative quantification only
T1 construct: 31; nd; 8.84E+06; 5.57E+06; His tag; made in house
Protocol: (§7) In an alternative method for assaying the various enzymes, the test glucosyl transferase enzyme is reacted with substrates exactly as above except that the assay is stopped by adding an equal volume of acetonitrile. Alternatively 50 or 100 μl samples from assay reactions are added to 500 μl ethyl acetate to stop the reaction. In this case samples are then vortexed and 400 μl of the ethyl acetate partition removed, dried down, and resuspended in 100 μl 80:20 acetonitrile/water. The formation of product gluco side and/or disappearance of substrate test herbicide is then monitored directly by LC/MS. Samples are analyzed by LC-MS using an Agilent 1290 liquid chromatography system and Thermo Q-Exactive mass spectrometer. The chromatography is achieved on a Waters Acquity C18 BEH (50×2.1 mm) 1.7 μm particle size column, using a 6 minute gradient run of Water (0.2% formic acid) and Acetonitrile. The Q-Exactive is operated in positive ionisation electrospray mode, using Full scan-AIF mode, at 35,000 resolution, between 100-800 m/z. All analytes are identified from the full scan data to within at least 5 ppm accuracy of their predicted pseudo-molecular ion [M+H]^+ m/z value. In order to obtain quantitative data standard curves are run using herbicides and herbicide glucosides synthesized as standards. Where these synthetic glucosides were not available the LC/MS assay could only be used to provide relative data.
(§8) DNA sequences, optimized for E. coli codon usage, were cloned, expressed and the various proteins purified and assayed as described in the foregoing examples. Using the UDP assay (as described in examples 1, 3 and 6) the data obtained from the Zea mays bx8 w/t protein and its variants was noisy due to relatively high background rates in DMSO reagent blanks. The values reported in the table 15 were thus monitored by LC/MS as described in example 1.

[4] = target: T2, SEQ ID 33, mutant bx-type glucosyl transferase (Zea mays, UniProt Q8W2B7, A285K); test: as above; type: biochemical; conditions: about 60 min, ~15 pmol enzyme, relative quantification only
T2 construct: 33; 1.70E+05; 3.59E+07; 9.27E+06; His tag; made in house
Protocol: as §7, §8

[5] = system: SEQ ID 47, mutant bx-type glucosyl transferase; test: as above; type: biochemical; conditions: about 60 min, ~15 pmol enzyme, nd = not detectable
Protocol: as §7, §8

[6] = system: non-transgenic w/t Zea mays seedlings; test: LC/MS of foliar extracts after herbicide treatment; type: in vivo; conditions: 24 and 48 h after treatment, 80% acetonitrile/water extract
Protocol: (§9) The expected glucosides of herbicides V and VI corresponding to those seen in vitro are also similarly produced in transgenic […] plants expressing Zea mays BX9 or expressing mutant derivatives of Zea mays BX9. For example, LC/MS analysis of extracts of leaves obtained by maceration and extraction into 80% acetonitrile/water 24 and 48 h after treatment with herbicides V and VI indicate that the same beta-glucosides that are produced by the enzymes in vitro are produced in planta.

[7] = system: transgenic tobacco plants expressing SEQ ID NO1 or SEQ ID NO 17; test: LC/MS of foliar extracts after herbicide treatment; type: in vivo; conditions: 24 and 48 h after treatment, 80% acetonitrile/water extract
Protocol: as §9

T2 sequence (Q8W2B7 whole entry A285K): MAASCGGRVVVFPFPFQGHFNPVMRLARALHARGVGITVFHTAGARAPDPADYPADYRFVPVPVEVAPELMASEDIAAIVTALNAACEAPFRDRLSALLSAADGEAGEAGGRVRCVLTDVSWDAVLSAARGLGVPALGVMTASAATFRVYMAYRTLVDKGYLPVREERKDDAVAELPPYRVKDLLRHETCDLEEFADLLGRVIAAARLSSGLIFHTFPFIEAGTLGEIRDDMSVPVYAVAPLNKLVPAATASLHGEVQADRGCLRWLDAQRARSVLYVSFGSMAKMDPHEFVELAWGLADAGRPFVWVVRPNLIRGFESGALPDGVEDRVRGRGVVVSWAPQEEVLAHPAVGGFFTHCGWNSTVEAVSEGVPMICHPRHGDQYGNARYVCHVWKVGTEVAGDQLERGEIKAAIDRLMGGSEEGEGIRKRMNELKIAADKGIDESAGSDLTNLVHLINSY
T1 sequence (Q8W2B7 whole entry S121V): as the sequence (Q8W2B7 whole entry A285K) above, with S121V, K285A counted along it

| Structure (SMILES) | rate of glucosyl transfer [1] | rate of glucosyl transfer [2] [s⁻¹ pmol⁻¹] | integrated peak area of beta-glucoside product [3] | integrated peak area of beta-glucoside product [4] | integrated peak area of beta-glucoside product [5] | glucoside found in foliar extract [6] | glucoside found in foliar extract [7] |
| --- | --- | --- | --- | --- | --- | --- | --- |
| CN1CC(O)N(c2cc(C(F)(F)F)ccn2)C1=O (stereo not shown) [Compound V] | about 0.0065 /s/pmol | ~0.0015 | 5.57E+06 and 5.59E+06 | 9.27E+06 and 9.76E+06 | 8.67E+05 and 6.30E+05 |  |  |
| CON1C(=O)N(c2cc(C(F)(F)F)ccn2)C(O)[C@@H]1C (stereo partly shown) [Compound VI] |  |  | 8.84E+06 and 1.04E+07 | 3.59E+07 and 3.45E+07 | 1.68E+05 and 1.05E+05 | the S-beta stereoisomer O-glucoside product of VI | mainly the S-beta stereoisomer O-glucoside product of VI |
